The target of this test is human SPR (Homo sapiens (Human), UniProt P35270). As to the kind of experiment: Evaluation Example 2: Measurement of human SPR inhibitory activity (seven concentrations, sepiapterin absorbance at 420 nm). In kind it is biochemical. The method in brief:
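Reactions ran 240 min at room temperature in 100 mM Tris-HCl pH 7.5 with 0.01% BSA. They contained tag-cleaved, E. coli-expressed full-length human SPR (diluted to 150 ng/mL), seven compound concentrations from 0.14 to 100 nM, and sepiapterin/NADPH added as a 120 μM/160 μM solution. Inhibition was calculated from sepiapterin absorbance at 420 nm.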

Where [1] appears, read: Evaluation Example 2, seven concentrations 0.14 nM to 100 nM, 240 minutes at room temperature, read-out: IC50.
[2] abbreviates: sepiapterin absorbance, Table 41, read-out: concentration at 50% inhibition of human SPR (IC50).

Where a name gives a salt, the structure may show the parent alone. Read-outs that look alike come from different tables or passages of the source.

Chain of human SPR (P35270 whole entry): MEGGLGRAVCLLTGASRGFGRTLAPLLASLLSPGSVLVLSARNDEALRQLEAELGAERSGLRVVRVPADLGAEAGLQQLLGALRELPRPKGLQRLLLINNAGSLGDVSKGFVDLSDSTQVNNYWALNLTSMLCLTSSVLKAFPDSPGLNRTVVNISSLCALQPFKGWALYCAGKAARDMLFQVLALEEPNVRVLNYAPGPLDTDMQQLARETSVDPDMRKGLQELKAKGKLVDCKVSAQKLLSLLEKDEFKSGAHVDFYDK

As to `Cc1nn2c(O)c(C(=O)NC3CC3)c(=O)n(CC(C)C)c2c1/C=C/C(=O)N1CCOCC1` [compound 563, (E)-N-Cyclopropyl-7-hydroxy-4-isobutyl-2-methyl-3-(3-morpholino-3-oxoprop-1-en-1-yl)-5-oxo-4,5-dihydropyrazolo[1,5-a]pyrimidine-6-carboxamide], under setting [1], the IC50 was 0.7 nM.

`CC(C)Cn1c(=O)c(C(=O)NC2CC2)c(O)n2ncc(/C=C/C(=O)N3CCOC[C@H]3CO)c12` [compound 526, (R,E)-N-Cyclopropyl-7-hydroxy-3-(3-(3-(hydroxymethyl)morpholino)-3-oxoprop-1-en-1-yl)-4-isobutyl-5-oxo-4,5-dihydropyrazolo[1,5-a]pyrimidine-6-carboxamide]: the IC50 under setting [1] was determined as 0.67 nM.

Take `CC(C)Cn1c(=O)c(C(=O)NC2CC2)c(O)n2ncc(/C=C/C(=O)N3CCCC34CCN(C)CC4)c12` [Synthesis Example 736, (E)-N-Cyclopropyl-7-hydroxy-4-isobutyl-3-(3-(8-methyl-1,8-diazaspiro[4.5]decan-1-yl)-3-oxoprop-1-en-1-yl)-5-oxo-4,5-dihydropyrazolo[1,5-a]pyrimidine-6-carboxamide]: the IC50 under setting [2] was found to be 1.07 nM.

As for `Cc1nn2c(O)c(C(=O)NC3CC3)c(=O)n(CC(C)C)c2c1/C=C/C(=O)N1CCC[C@@H]1C#N` [Synthesis Example 749, (R,E)-3-(3-(2-Cyanopyrrolidin-1-yl)-3-oxoprop-1-en-1-yl)-N-cyclopropyl-7-hydroxy-4-isobutyl-2-methyl-5-oxo-4,5-dihydropyrazolo[1,5-a]pyrimidine-6-carboxamide], under setting [2], the IC50 is 0.93 nM.

On to `CC(C)(Cn1c(=O)c(C(=O)NC2CC2)c(O)n2nc(C(N)=O)cc12)C(F)(F)F` [Synthesis Example 277, N6-Cyclopropyl-7-hydroxy-5-oxo-4-(3,3,3-trifluoro-2,2-dimethylpropyl)-4,5-dihydropyrazolo[1,5-a]pyrimidine-2,6-dicarboxamide], for which the IC50 under setting [1] came to 0.82 nM.

`CC(C)Cn1c(=O)c(C(=O)NC2CC2)c(O)n2ncc(C(=O)NCc3ncccc3F)c12` [Synthesis Example 235, N6-Cyclopropyl-N3-((3-fluoropyridin-2-yl)methyl)-7-hydroxy-4-isobutyl-5-oxo-4,5-dihydropyrazolo[1,5-a]pyrimidine-3,6-dicarboxamide]: under setting [1], the IC50 was found to be 0.9 nM.

On to `CCN1CCN(C(=O)/C=C/c2c(C)nn3c(O)c(C(=O)NC4CC4)c(=O)n(CC(C)C)c23)[C@@H](C)C1` [Synthesis Example 707, (S,E)-N-Cyclopropyl-3-(3-(4-ethyl-2-methylpiperazin-1-yl)-3-oxoprop-1-en-1-yl)-7-hydroxy-4-isobutyl-2-methyl-5-oxo-4,5-dihydropyrazolo[1,5-a]pyrimidine-6-carboxamide], for which the IC50 under setting [2] was 0.84 nM.

In the case of `COC[C@@H]1CCCN1C(=O)/C=C/c1c(C)nn2c(O)c(C(=O)NC3CC3)c(=O)n(CC(C)C)c12` [Synthesis Example 613, (S,E)-N-Cyclopropyl-7-hydroxy-4-isobutyl-3-(3-(2-(methoxymethyl)pyrrolidin-1-yl)-3-oxoprop-1-en-1-yl)-2-methyl-5-oxo-4,5-dihydropyrazolo[1,5-a]pyrimidine-6-carboxamide], the IC50 under setting [1] came out at 1.04 nM.

Consider `O=C(NC1CC1)c1c(O)n2ncc(/C=C/C(=O)N3CC4CCC(C3)O4)c2n(CC2(F)CC2)c1=O` [Synthesis Example 378, (E)-3-(3-(8-Oxa-3-azabicyclo[3.2.1]octan-3-yl)-3-oxoprop-1-en-1-yl)-N-cyclopropyl-4-((1-fluorocyclopropyl)methyl)-7-hydroxy-5-oxo-4,5-dihydropyrazolo[1,5-a]pyrimidine-6-carboxamide], for which, under setting [1], the IC50 worked out at 0.79 nM.

As to `CC(C)(C)Cn1c(=O)c(C(=O)NC2CC2)c(O)n2nc(NC(N)=O)c(/C=C/C(=O)N3CCOCC3)c12` [Synthesis Example 424, (E)-N-Cyclopropyl-7-hydroxy-3-(3-morpholino-3-oxoprop-1-en-1-yl)-4-neopentyl-5-oxo-2-ureido-4,5-dihydropyrazolo[1,5-a]pyrimidine-6-carboxamide], the IC50 under setting [1] came out at 0.67 nM.

With `CC(C)Cn1c(=O)c(C(=O)NC2CC2)c(O)n2ncc(/C=C/C(=O)N3CC4CCC(C3)C4(F)F)c12` [Synthesis Example 720, (E)-N-Cyclopropyl-3-(3-(8,8-difluoro-3-azabicyclo[3.2.1]octan-3-yl)-3-oxoprop-1-en-1-yl)-7-hydroxy-4-isobutyl-5-oxo-4,5-dihydropyrazolo[1,5-a]pyrimidine-6-carboxamide], the IC50 under setting [2] came to 1.03 nM.

In the case of `CC(C)Cn1c(=O)c(C(=O)NC2CC2)c(O)n2nc(N)c(/C=C/C(=O)N3C4CCCC3COC4)c12` [Synthesis Example 423, (E)-3-(3-(3-Oxa-9-azabicyclo[3.3.1]nonan-9-yl)-3-oxoprop-1-en-1-yl)-2-amino-N-cyclopropyl-7-hydroxy-4-isobutyl-5-oxo-4,5-dihydropyrazolo[1,5-a]pyrimidine-6-carboxamide hydrochloride], under setting [1], the IC50 was determined as 0.71 nM.

For `CC1(Cn2c(=O)c(C(=O)NC3CC3)c(O)n3ncc(/C=C/C(=O)N4CCOCC4)c23)CCOCC1` [Synthesis Example 386, (E)-N-Cyclopropyl-7-hydroxy-4-((4-methyltetrahydro-2H-pyran-4-yl)methyl)-3-(3-morpholino-3-oxoprop-1-en-1-yl)-5-oxo-4,5-dihydropyrazolo[1,5-a]pyrimidine-6-carboxamide], the IC50 under setting [1] came out at 0.6 nM.

Take `Cc1nn2c(O)c(C(=O)NC3CC3)c(=O)n(CC(C)C)c2c1/C=C/C(=O)N1CCC[C@@H]1c1ccccn1` [Synthesis Example 635, (R,E)-N-Cyclopropyl-7-hydroxy-4-isobutyl-2-methyl-5-oxo-3-(3-oxo-3-(2-(pyridin-2-yl)pyrrolidin-1-yl)prop-1-en-1-yl)-4,5-dihydropyrazolo[1,5-a]pyrimidine-6-carboxamide]: the IC50 under setting [1] turned out to be 1.08 nM.

Regarding `Cc1nn2c(O)c(C(=O)NC3CC3)c(=O)n(CC(C)C)c2c1/C=C/C(=O)N1CCc2ccncc21` [Synthesis Example 699, (E)-N-Cyclopropyl-3-(3-(2,3-dihydro-1H-pyrrolo[2,3-c]pyridin-1-yl)-3-oxoprop-1-en-1-yl)-7-hydroxy-4-isobutyl-2-methyl-5-oxo-4,5-dihydropyrazolo[1,5-a]pyrimidine-6-carboxamide], the IC50 under setting [2] was 1.47 nM.

`Cc1nn2c(O)c(C(=O)NC3CC3)c(=O)n(CC(C)C)c2c1/C=C/C(=O)N1CCN(CC2CC(F)(F)C2)CC1` [Synthesis Example 698, (E)-N-Cyclopropyl-3-(3-(4-((3,3-difluorocyclobutyl)methyl)piperazin-1-yl)-3-oxoprop-1-en-1-yl)-7-hydroxy-4-isobutyl-2-methyl-5-oxo-4,5-dihydropyrazolo[1,5-a]pyrimidine-6-carboxamide]: the IC50 under setting [2] worked out at 1.52 nM.

Take `CC(C)Cn1c(=O)c(C(=O)NC2CC2)c(O)n2ncc(/C=C/C(=O)N3C4CCC3COC4)c12` [compound 533, (E)-3-(3-(3-Oxa-8-azabicyclo[3.2.1]octan-8-yl)-3-oxoprop-1-en-1-yl)-N-cyclopropyl-7-hydroxy-4-isobutyl-5-oxo-4,5-dihydropyrazolo[1,5-a]pyrimidine-6-carboxamide]: the IC50 under setting [1] came out at 0.64 nM.

For the compound `Cc1nn2c(O)c(C(=O)NC3CC3)c(=O)n(CC(C)(C)C)c2c1/C=C/C(=O)N1[C@@H](C)COC[C@@H]1C` [Synthesis Example 624, N-Cyclopropyl-3-((E)-3-((3S,5S)-3,5-dimethylmorpholino)-3-oxoprop-1-en-1-yl)-7-hydroxy-2-methyl-4-neopentyl-5-oxo-4,5-dihydropyrazolo[1,5-a]pyrimidine-6-carboxamide], the IC50 under setting [1] is 0.98 nM.

Regarding `CC(C)Cn1c(=O)c(C(=O)NC2CC2)c(O)n2ncc(C(=O)NCc3ncccn3)c12` [Synthesis Example 231, N6-Cyclopropyl-7-hydroxy-4-isobutyl-5-oxo-N3-(pyrimidin-2-ylmethyl)-4,5-dihydropyrazolo[1,5-a]pyrimidine-3,6-dicarboxamide], the IC50 under setting [1] came out at 0.65 nM.

Regarding `CC(C)(C)Cn1c(=O)c(C(=O)NC2CC2)c(O)n2nc(Nc3cnc(C(F)F)cn3)cc12` [Synthesis Example 337, N-Cyclopropyl-2-((5-(difluoromethyl)pyrazin-2-yl)amino)-7-hydroxy-4-neopentyl-5-oxo-4,5-dihydropyrazolo[1,5-a]pyrimidine-6-carboxamide], under setting [1], the IC50 turned out to be 1.48 nM.

With `COCCNC(=O)/C=C/c1cnn2c(O)c(C(=O)NC3CC3)c(=O)n(CC(C)C)c12` [compound 517, (E)-N-Cyclopropyl-7-hydroxy-4-isobutyl-3-(3-((2-methoxyethyl)amino)-3-oxoprop-1-en-1-yl)-5-oxo-4,5-dihydropyrazolo[1,5-a]pyrimidine-6-carboxamide], the IC50 under setting [1] was found to be 0.57 nM.

On to `CCN1CCN(C(=O)/C=C/c2c(C)nn3c(O)c(C(=O)NC4CC4)c(=O)n(CC(C)C)c23)[C@H](C)C1` [Synthesis Example 751, (R,E)-N-Cyclopropyl-3-(3-(4-ethyl-2-methylpiperazin-1-yl)-3-oxoprop-1-en-1-yl)-7-hydroxy-4-isobutyl-2-methyl-5-oxo-4,5-dihydropyrazolo[1,5-a]pyrimidine-6-carboxamide], for which the IC50 under setting [2] was determined as 1.34 nM.

On to `CC(C)Cn1c(=O)c(C(=O)NC2CC2)c(O)n2ncc(/C=C/C(=O)N3CCCCO3)c12` [compound 535, (E)-3-(3-(1,2-Oxazinan-2-yl)-3-oxoprop-1-en-1-yl)-N-cyclopropyl-7-hydroxy-4-isobutyl-5-oxo-4,5-dihydropyrazolo[1,5-a]pyrimidine-6-carboxamide], for which the IC50 under setting [1] turned out to be 0.92 nM.

As for `Cc1nn2c(O)c(C(=O)NC3CC3)c(=O)n(CC(C)(C)F)c2c1/C=C/C(=O)N1CCOCC1` [Synthesis Example 747, (E)-N-Cyclopropyl-4-(2-fluoro-2-methylpropyl)-7-hydroxy-2-methyl-3-(3-morpholino-3-oxoprop-1-en-1-yl)-5-oxo-4,5-dihydropyrazolo[1,5-a]pyrimidine-6-carboxamide], the IC50 under setting [2] came out at 0.74 nM.

(Values after patent US20240092784A1, “CONDENSED HETEROCYCLIC COMPOUND” (NISSAN CHEMICAL CORPORATION, priority 2020, published 2024).)
